Test results published in patent publication US11884649B2, “IRE1α inhibitors and uses thereof” (The Regents of the University of California, priority 2020, dated 2024).

Legend:
[1] = system: RIDD (IRE1α-dependent mRNA decay); assay: Real-time PCR of RIDD mRNA targets in INS-1 cells overexpressing IRE1α (Dox); assay type: cell-based, rat; conditions: 3, 10 μM for 1 hour, then Dox (5 ng/mL) for 24 hours
Method: (§1) RNA Isolation, Quantitative Real-Time PCR, and Primers
(§2) INS-1 or isogenic IRE1α-overexpressing INS-1 cells were plated onto Poly-D-Lysine coated tissue culture plate and grown for 48 hrs. Inhibitors or DMSO were added to the media and incubated for 1 hour at 37° C. with 5% CO2 prior to addition of ER stress agents or Dox as indicated. RNA was isolated from whole cells using either QIAGEN RNeasy Mini kits or Trizol (Invitrogen) and reverse transcribed as above to obtain total cDNA. Then, XBP-1 primers were used to amplify an XBP-1 amplicon spanning the 26 nt intron from the cDNA samples in a regular 3-step PCR. Thermal cycles were: 5 min at 95° C., 30 cycles of 30 s at 95° C., 30 s at 60° C., and 1 min at 72° C., followed by 72° C. for 15 min, and hold at 4° C. Primers used for XBP-1 mRNA splicing were as follows: sense primer XBP1.3 S (5′ […]-3′ (SEQ ID NO:2)) and antisense primer XBP1.2AS (5′-[…]-3′ (SEQ ID NO:3)). PCR fragments were then digested by PstI, resolved on 3% agarose gels, stained with EtBr and quantified by densitometry using ImageJ (NIH). For standard mRNA detection, generally […] total RNA was reverse transcribed using the QuantiTect Reverse Transcription Kit (QIAGEN). For qPCR, we used SYBR green (QIAGEN) and StepOnePlus Real-Time PCR System (Applied Biosystems). Thermal cycles were: 5 min at 95° C., 40 cycles of 15 sec at 95° C., 30 sec at 60° C. Gene expression levels were normalized to Beta Actin. Primers used for qPCR of RIDD targets were as follows: Beta Actin Fwd: 5′-[…]-3′ (SEQ ID NO:4), Beta Actin Rev: 5′-[…]-3′ (SEQ ID NO:5), Insulin 1 Fwd: 5′-GTCCTCTGGGAGCCCAAG-3′ (SEQ ID NO:6), Insulin 1 Rev: 5′-ACAGAGCCTCCACCAGG-3′ (SEQ ID NO:7), Insulin 2 Fwd: 5′-ATCCTCTGGGAGCCCCGC-3′ (SEQ ID NO:8), Insulin 2 Rev: 5′-AGAGAGCTTCCACCAAG-3′ (SEQ ID NO:9), Blos1 Fwd: 5′-[…]-3′ (SEQ ID NO:10), and Blos1 Rev: 5′-[…]-3′ (SEQ ID NO:11).
Real-Time PCR (Q-PCR) used SYBR green and Step OnePlus Real-Time PCR System (Applied Biosystems). Thermal cycles were: 5 min at 95° C., 40 cycles of 15 s at 95° C., 30 s at 60° C. Gene expression levels were normalized to GAPDH. Q-PCR Sense/antisense primers used: Rat GAPDH, 5′-[…]-3′ (SEQ ID NO:14) and 5′-[…]-3′ (SEQ ID NO:15); Rat Ins1, 5′-GTCCTCTGGGAGCCCAAG-3′ (SEQ ID NO:6) and 5′-ACAGAGCCTCCACCAGG-3′ (SEQ ID NO:7); Rat Pdia4, 5′-CGTCTCGCCCTGATTCGT-3′ (SEQ ID NO:16) and 5′-[…]-3′ (SEQ ID NO:17); Rat Blos1, 5′-[…]-3′ (SEQ ID NO:18) and 5′-TGTCCAGTTCGATGCTCCG-3′ (SEQ ID NO:19).
Real-time PCR for FIGS. 34A-34F: Real-Time PCR (Q-PCR) used SYBR green and Step OnePlus Real-Time PCR System (Applied Biosystems). Thermal cycles were: 5 min at 95° C., 40 cycles of 15 s at 95° C., 30 s at 60° C. Gene expression levels were normalized to GAPDH. Q-PCR Sense/antisense primers used: Rat GAPDH, 5′-[…]-3′ (SEQ ID NO:20) and 5′-[…]-3′ (SEQ ID NO:21); Rat Ins1, 5′-GTCCTCTGGGAGCCCAAG-3′ (SEQ ID NO:6) and 5′-ACAGAGCCTCCACCAGG-3′ (SEQ ID NO:7); Rat Ins2, 5′-ATCCTCTGGGAGCCCCGC-3′ (SEQ ID NO:8) and 5′-AGAGAGCTTCCACCAAG-3′ (SEQ ID NO:9); Rat Pdia4, 5′-[…]-3′(SEQ ID NO:22) and 5′-[…]-3′ (SEQ ID NO:23); Rat Blos1, 5′-[…]-3′ (SEQ ID NO:18) and 5′-TGTCCAGTTCGATGCTCCG-3′ (SEQ ID NO:19).

XBP1 mRNA splicing = XBP1 mRNA splicing in INS-1 cells conditionally overexpressing IRE1α (Dox); assay type: cell-based, rat; conditions: 3, 10 μM for 1 hour, then Dox (1 μg/mL) for 4 hours
Method: as §1, §2
(§3) RNA was extracted using Trizol (Invitrogen), DNaseI treated, and cDNA products encompassing the intron amplified by QuantiTect Reverse Transcription Kit (Qiagen). sense Primer rXBP Forward (5′-[…]-3′ (SEQ ID NO:12)) and antisense primer rXBP Reverse (5′-[…]-3′ (SEQ ID NO:13)) were used. PCR fragments were digested by PstI, resolved on 3% agarose gels, stained with EtBr, and quantified by densitometry.
as §3, with “XBP1 splicing for FIGS. 33A-33F: RNA” for “RNA”, “(Invitrogen),” for “(Invitrogen), DNaseI treated, and”, “(Qiagen). Sense” for “(Qiagen). sense”, “rXBP splicing” for “rXBP”

IRE1α* = target: T1, IRE1α* (Homo sapiens, UniProt O75460); assay: In vitro kinase activity assay (IRE1α kinase inhibition); assay type: biochemical; conditions: IRE1α kinase inhibition; read-out: IC50 IRE1a
T1 construct: human IRE1α (residues 547-977, IRE1α*) was expressed in SF9 insect cells; His6 (N); made in house; host or cells: Sf9 insect cells (Bac-to-Bac baculovirus)
Method: A construct containing the cytosolic kinase and RNase domains of human IRE1α (residues 547-977, IRE1α*) was expressed in SF9 insect cells by using the Bac-to-Bac baculovirus expression system (Invitrogen) with a His6 tag at the N-terminus and purified with a nickel-nitriloacetic acid (Qiagen) column. To generate dP-IRE1α*, we removed basal phosphorylation sites by incubating IRE1α* with λ-PPase (New England Biolabs) at a molar ratio of 5:1 (IRE1α*: λ-PPase) in 50 mM HEPES pH 7.5, 100 mM NaCl, 1 mM MnCl2, 2 mM dithiothreitol (DTT) and 0.01% Brij 35 detergent (v/v) overnight at 4° C. Dephosphorylation was verified through western blotting using a universal phospho-protein detection agent (biotin-pIMAGO (Tymora Analytical Operations, Cat. No.: FL800) and imaged using a streptavidin-linked fluorophore.
In Vitro Kinase Activity Assay
Inhibitors (initial concentration of 10 or 60 μM, three-fold serial dilutions) were incubated with IRE1α* in cleavage buffer (20 mM HEPES, 0.05% Triton X-100 (v/v), 50 mM KCl, 1 mM MgCl2, 1 mM DTT, pH 7.5) for 30 min, followed by incubation with 10 μCi [γ^32P] ATP (3,000 Ci mmol^−1, PerkinElmer) at 23° C. for 3 hours. Samples were then spotted onto glass fiber paper (Easytab-C Glass Fiber Filter Paper, Perkin Elmer) and washed in twice with 0.5% phosphoric acid and autoradiographed using a GE Typhoon FLA 9000 Imager. Blots were quantitated using ImageQuant software. The percent inhibition was quantified by setting the background (no kinase well) as 0 and standardizing to IRE1α* without compound treatment (IRE1α*+DMSO). Dose-response curves were fit using “one-site fit log IC50” parameter using GraphPad Prism analysis software.
Compound Characterization (IC50 IRE1α Kinase Inhibition)

T1 sequence (O75460 547-977): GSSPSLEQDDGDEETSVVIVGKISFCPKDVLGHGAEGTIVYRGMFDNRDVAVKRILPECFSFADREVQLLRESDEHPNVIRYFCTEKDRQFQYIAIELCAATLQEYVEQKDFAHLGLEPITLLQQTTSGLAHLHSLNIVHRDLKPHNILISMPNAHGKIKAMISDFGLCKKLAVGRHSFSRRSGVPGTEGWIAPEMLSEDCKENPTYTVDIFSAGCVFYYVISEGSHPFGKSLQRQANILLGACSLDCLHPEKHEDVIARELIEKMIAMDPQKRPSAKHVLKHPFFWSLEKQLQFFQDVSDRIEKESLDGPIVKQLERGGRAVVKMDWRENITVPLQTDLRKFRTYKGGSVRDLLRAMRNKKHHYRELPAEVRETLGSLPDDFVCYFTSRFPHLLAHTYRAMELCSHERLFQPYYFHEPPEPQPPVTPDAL

IC50 (IRE1α*): 7.4 nM
SMILES: Cc1cc(NS(=O)(=O)CC2CC2)c2ccccc2c1Oc1ncccc1-c1ccnc(N[C@@H]2CNC[C@@H](F)C2)n1 [LBC-409, 1-cyclopropyl-N-(4-((3-(2-(((3S,5S)-5-fluoropiperidin-3-yl)amino)pyrimidin-4-yl)pyridin-2-yl)oxy)-3-methylnaphthalen-1-yl)methanesulfonamide]
RIDD mRNA targets (Ins1, Ins2, Pdia4) [1]: block RIDD
% spliced XBP1 amplicons (XBP1 mRNA splicing): do not suppress XBP mRNA splicing
